# Source: PubChem BioAssay AID2060495 (Molecular Pharmacology Branch, DTP, NCI, 2025)
# Tested on: 521955-158-R2-J5-PDC complex spheroid viability
# Experiment: Anticancer human tumor 521955-158-R2-J5-PDC patient-derived pancreatic carcinoma cell line growth inhibition [GQUAD]
# Settings: for IC50: curve of first compound; for viability, T/C: stronger effect = lower value
# Summary of the method: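 Viability of tumor cells grown as complex spheroids with endothelial and stromal cells, exposed to drug combinations. Top concentration at or near clinical Cmax (else 10 microM), diluted in half-log increments.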
# [1] = second compound 0.0316 µM, first compound 0.0316 µM
# [2] = second compound 0.0316 µM, first compound 0.1 µM
# [3] = second compound 0.0316 µM, first compound 0.316 µM
# [4] = second compound 0.0316 µM, first compound 1 µM
# [5] = second compound 0.0316 µM, first compound 3.16 µM
# [6] = second compound 0.0316 µM, first compound 10 µM
# [7] = second compound 0.1 µM, first compound 0.0316 µM
# [8] = second compound 0.1 µM, first compound 0.1 µM
# [9] = second compound 0.1 µM, first compound 0.316 µM
# [10] = second compound 0.1 µM, first compound 1 µM
# [11] = second compound 0.1 µM, first compound 3.16 µM
# [12] = second compound 0.1 µM, first compound 10 µM
# [13] = second compound 0.316 µM, first compound 0.0316 µM
# [14] = second compound 0.316 µM, first compound 0.1 µM
# [15] = second compound 0.316 µM, first compound 0.316 µM
# [16] = second compound 0.316 µM, first compound 1 µM
# [17] = second compound 0.316 µM, first compound 3.16 µM
# [18] = second compound 0.316 µM, first compound 10 µM
# [19] = second compound 1 µM, first compound 0.0316 µM
# [20] = second compound 1 µM, first compound 0.1 µM
# [21] = second compound 1 µM, first compound 0.316 µM
# [22] = second compound 1 µM, first compound 1 µM
# [23] = second compound 1 µM, first compound 3.16 µM
# [24] = second compound 1 µM, first compound 10 µM
# [25] = second compound 3.16 µM, first compound 0.0316 µM
# [26] = second compound 3.16 µM, first compound 0.1 µM
# [27] = second compound 3.16 µM, first compound 0.316 µM
# [28] = second compound 3.16 µM, first compound 1 µM
# [29] = second compound 3.16 µM, first compound 3.16 µM
# [30] = second compound 3.16 µM, first compound 10 µM
# [31] = second compound 10 µM, first compound 0.0316 µM
# [32] = second compound 10 µM, first compound 0.1 µM
# [33] = second compound 10 µM, first compound 0.316 µM
# [34] = second compound 10 µM, first compound 1 µM
# [35] = second compound 10 µM, first compound 3.16 µM
# [36] = second compound 10 µM, first compound 10 µM
# 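Further: spheroids exposed to agents for one week before reading.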
# 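Wherever viability, T/C is given: 100% = DMSO vehicle control viability.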
smiles,measurement,setting,value
C=CC(=O)N1CCN(c2nc(=O)n(-c3c(C)ccnc3C(C)C)c3nc(-c4c(O)cccc4F)c(F)cc23)C(C)C1 (stereo unspecified) + Cc1cnc(CNC(=O)c2c(=O)c3ccc(N4CCCN(C)CC4)nc3n3c2sc2ccccc23)cn1,IC50,second compound 0.0316 µM,> 10000 nM
same,IC50,second compound 0.1 µM,> 10000 nM
same,IC50,second compound 0.316 µM,< 31.6 nM
same,IC50,second compound 1 µM,< 31.6 nM
same,IC50,second compound 3.16 µM,< 31.6 nM
same,IC50,second compound 10 µM,< 31.6 nM
same,"viability, T/C",[1],81%
same,"viability, T/C",[2],70.8%
same,"viability, T/C",[3],84.4%
same,"viability, T/C",[4],79.2%
same,"viability, T/C",[5],77%
same,"viability, T/C",[6],72.2%
same,"viability, T/C",[7],60.3%
same,"viability, T/C",[8],55.3%
same,"viability, T/C",[9],56.1%
same,"viability, T/C",[10],57.3%
same,"viability, T/C",[11],61.5%
same,"viability, T/C",[12],52.9%
same,"viability, T/C",[13],36.6%
same,"viability, T/C",[14],32.1%
same,"viability, T/C",[15],33.7%
same,"viability, T/C",[16],46.9%
same,"viability, T/C",[17],49.1%
same,"viability, T/C",[18],32.1%
same,"viability, T/C",[19],21.5%
same,"viability, T/C",[20],20.2%
same,"viability, T/C",[21],19.7%
same,"viability, T/C",[22],26.2%
same,"viability, T/C",[23],21.7%
same,"viability, T/C",[24],19.3%
same,"viability, T/C",[25],22.8%
same,"viability, T/C",[26],17.6%
same,"viability, T/C",[27],19.9%
same,"viability, T/C",[28],20.5%
same,"viability, T/C",[29],25%
same,"viability, T/C",[30],18.4%
same,"viability, T/C",[31],18.4%
same,"viability, T/C",[32],18.5%
same,"viability, T/C",[33],20.9%
same,"viability, T/C",[34],18%
same,"viability, T/C",[35],13.7%
same,"viability, T/C",[36],15.8%
CC(C)n1c(=O)n(C)c2cnc3cc(F)c(-c4ccc(OCCCN5CCCCC5)nc4)cc3c21 + Cc1cnc(CNC(=O)c2c(=O)c3ccc(N4CCCN(C)CC4)nc3n3c2sc2ccccc23)cn1,IC50,second compound 0.0316 µM,> 10000 nM
same,IC50,second compound 0.1 µM,> 10000 nM
same,IC50,second compound 0.316 µM,< 31.6 nM
same,IC50,second compound 1 µM,< 31.6 nM
same,IC50,second compound 3.16 µM,< 31.6 nM
same,IC50,second compound 10 µM,< 31.6 nM
same,"viability, T/C",[1],60.1%
same,"viability, T/C",[2],53.2%
same,"viability, T/C",[3],70.5%
same,"viability, T/C",[4],56%
same,"viability, T/C",[5],76.2%
same,"viability, T/C",[6],74.9%
same,"viability, T/C",[7],44.2%
same,"viability, T/C",[8],60.9%
same,"viability, T/C",[9],62.2%
same,"viability, T/C",[10],54.1%
same,"viability, T/C",[11],49.7%
same,"viability, T/C",[12],56.6%
same,"viability, T/C",[13],31.7%
same,"viability, T/C",[14],31.4%
same,"viability, T/C",[15],42.6%
same,"viability, T/C",[16],40.4%
same,"viability, T/C",[17],36.7%
same,"viability, T/C",[18],41.7%
same,"viability, T/C",[19],20%
same,"viability, T/C",[20],22.5%
same,"viability, T/C",[21],19.5%
same,"viability, T/C",[22],20%
same,"viability, T/C",[23],22.1%
same,"viability, T/C",[24],26.8%
same,"viability, T/C",[25],19.1%
same,"viability, T/C",[26],17.9%
same,"viability, T/C",[27],19.6%
same,"viability, T/C",[28],21.1%
same,"viability, T/C",[29],24.6%
same,"viability, T/C",[30],20.4%
same,"viability, T/C",[31],17.7%
same,"viability, T/C",[32],19.4%
same,"viability, T/C",[33],18.9%
same,"viability, T/C",[34],20%
same,"viability, T/C",[35],21.1%
same,"viability, T/C",[36],21.8%
CCc1c2c(nc3ccc(O)cc13)-c1cc3c(c(=O)n1C2)COC(=O)[C@]3(O)CC + Cc1cnc(CNC(=O)c2c(=O)c3ccc(N4CCCN(C)CC4)nc3n3c2sc2ccccc23)cn1,IC50,second compound 0.0316 µM,1.04 nM
same,IC50,second compound 0.1 µM,< 0.999 nM
same,IC50,second compound 0.316 µM,< 0.999 nM
same,IC50,second compound 1 µM,< 0.999 nM
same,IC50,second compound 3.16 µM,< 0.999 nM
same,IC50,second compound 10 µM,< 0.999 nM
same,"viability, T/C","second compound 0.0316 µM, first compound 0.000999 µM",51.5%
same,"viability, T/C","second compound 0.0316 µM, first compound 0.00316 µM",15.3%
same,"viability, T/C","second compound 0.0316 µM, first compound 0.00999 µM",11.1%
same,"viability, T/C",[1],6.45%
same,"viability, T/C","second compound 0.0316 µM, first compound 0.0999 µM",6.82%
same,"viability, T/C",[3],2.28%
same,"viability, T/C","second compound 0.1 µM, first compound 0.000999 µM",32.7%
same,"viability, T/C","second compound 0.1 µM, first compound 0.00316 µM",18.6%
same,"viability, T/C","second compound 0.1 µM, first compound 0.00999 µM",12.7%
same,"viability, T/C",[7],6%
same,"viability, T/C","second compound 0.1 µM, first compound 0.0999 µM",4.68%
same,"viability, T/C",[9],1.38%
same,"viability, T/C","second compound 0.316 µM, first compound 0.000999 µM",25.2%
same,"viability, T/C","second compound 0.316 µM, first compound 0.00316 µM",15.8%
same,"viability, T/C","second compound 0.316 µM, first compound 0.00999 µM",12.8%
same,"viability, T/C",[13],5.79%
same,"viability, T/C","second compound 0.316 µM, first compound 0.0999 µM",4.66%
same,"viability, T/C",[15],0.47%
same,"viability, T/C","second compound 1 µM, first compound 0.000999 µM",17.1%
same,"viability, T/C","second compound 1 µM, first compound 0.00316 µM",13.5%
same,"viability, T/C","second compound 1 µM, first compound 0.00999 µM",7.77%
same,"viability, T/C",[19],1.4%
same,"viability, T/C","second compound 1 µM, first compound 0.0999 µM",0.12%
same,"viability, T/C",[21],0.1%
same,"viability, T/C","second compound 3.16 µM, first compound 0.000999 µM",13.7%
same,"viability, T/C","second compound 3.16 µM, first compound 0.00316 µM",9.61%
same,"viability, T/C","second compound 3.16 µM, first compound 0.00999 µM",3.83%
same,"viability, T/C",[25],0.1%
same,"viability, T/C","second compound 3.16 µM, first compound 0.0999 µM",0.1%
same,"viability, T/C",[27],0.14%
same,"viability, T/C","second compound 10 µM, first compound 0.000999 µM",12%
same,"viability, T/C","second compound 10 µM, first compound 0.00316 µM",9.68%
same,"viability, T/C","second compound 10 µM, first compound 0.00999 µM",3.64%
same,"viability, T/C",[31],0.13%
same,"viability, T/C","second compound 10 µM, first compound 0.0999 µM",0.17%
same,"viability, T/C",[33],0.21%
